Reference: publication PMC11184554, “Nature-Inspired Gallinamides Are Potent Antischistosomal Agents: Inhibition of the Cathepsin B1 Protease Target and Binding Mode Analysis” (ACS Infectious Diseases, 2024)

What was measured:
[1] = system: S. mansoni newly transformed schistosomula (NTS); assay: Phenotypic screen with newly transformed schistosomula (NTS); assay type: cell-based
Description: The same 19 gallinamides were screened for bioactivity against S. mansoni newly transformed schistosomula (NTS), the postinvasive parasite stage that feeds on host blood.[40] In this primary assay, the NTS were exposed to 1 and 10 μM compounds for 3 days, and the resulting phenotypic responses were graded from 0 through 4, i.e., the least to the most severe (Table 2 and Table S1). […] The effects were more pronounced after 72 h, and when the higher, 10 μM, compound concentration was used (Table S1). […] Also, compared to gallinamide A and its analogs, 3 has an additional N-terminal N-acetamide modification that further reduces bioactivity (Table 2).
Phenotypic screens employed S. mansoni newly transformed schistosomula (NTS) and adults and were carried out as described previously.[18]−[20],[42] NTS were prepared by mechanically transforming infective larvae (cercariae).[40],[42] NTS (200–300 parasites) were incubated in flat-bottomed 96-well plates in 200 μL of Basch Medium 169 containing 5% (v/v) FBS, 100 U mL^–1 penicillin and 100 μg mL^–1 streptomycin (complete Basch medium)[75] at 5% CO2 and 37 °C.[76],[77] Inhibitors were added at final concentrations of 1 and 10 μM, and changes in phenotypes were observed under an inverted microscope every 24 h for up to 72 h.
A constrained nomenclature of “descriptors”[39],[42] was used to record the multiple and dynamic changes in movement, shape, and translucence that the schistosome parasite is capable of (Table S1 for NTS and Table S3 for adults). These descriptors were then converted into an ordinal “severity score” system ranging from 0 (no effect) to 4 (maximum effect), which allows for the relative comparison of compound effects.

recombinant SmCB1 = assay: Kinetic inhibition assay with recombinant SmCB1 (k2nd); assay type: biochemical, S. mansoni; conditions: for decrease in inhibitory potency vs gallinamide A / decrease in inhibition potency vs 8: ratio of k2nd values; for SmCB1 inhibition k2nd: second-order rate constant (kinact/Ki), substrate Cbz–Phe–Arg–AMC, pH 5.5, 37 °C, mean ± SE; for decrease in inhibition potency vs 8: range over the compounds named
Description: Gallinamide A and a series of its 18 derivatives were evaluated in vitro as inhibitors of SmCB1 to explore the binding specificities of the subsites in the enzyme’s active site. The gallinamide A inhibitor scaffold can be defined by positions P4 through P1′ (Schechter and Berger nomenclature[37]), which were assigned according to the binding mode analysis (see the crystallographic section below). The substituents R4, R1, and R1′ introduced on the scaffold (Table 2) are numbered according to the respective positions P4, P1, and P1′. The compounds’ second-order rate constants (k2nd) were determined using a kinetic inhibition assay with recombinant SmCB1 and the substrate, Cbz–Phe–Arg–AMC.
Inhibition measurements were performed in duplicate in 96-well microplates (100 μL assay volume) at 37 °C. SmCB1 (40 pM) was added to a mixture of the fluorogenic substrate Cbz–Phe–Arg–AMC (25 μM) and an inhibitor (0–100 μM) in 0.1 M sodium acetate, pH 5.5, containing 2.5 mM dithiothreitol and 0.01% (w/v) BRIJ 35. Substrate hydrolysis was monitored in an Infinite M1000 microplate reader (Tecan) at excitation and emission wavelengths of 360 and 465 nm, respectively, for up to 150 min. An observed first-order rate constant, kobs, was calculated at each inhibitor concentration by fitting the progress curve to the equation P = vi/kobs(1 – exp(−kobst)) + d where P is the product formation, t is the reaction time, vi is the initial velocity, and d is the offset. […] The second-order rate constant, k2nd, (and SE value) was determined by fitting the linear equation kobs = (k2nd[I])/(1 + [S]/Km), where [S] is the substrate concentration, [I] is the inhibitor concentration, and KM is the Michaelis–Menten constant. The KM value determined for SmCB1 was 25 μM. […] To determine IC50 values, SmCB1 (40 pM) was preincubated with the inhibitor (0–100 μM) for 30 min under assay conditions as described above, followed by the addition of the fluorogenic substrate Cbz–Phe–Arg–AMC (20 μM). Substrate hydrolysis was monitored for 30 min in a microplate reader as described above. The IC50 values were determined by nonlinear regression using GraFit software (Erithacus Software).

[2] = 1 μM compound, 24 h, scale 0 (no effect) to 4 (most severe)
[3] = 1 μM compound, 48 h, scale 0 to 4
[4] = 1 μM compound, 72 h, scale 0 to 4
[5] = 10 µM compound, 24 h, scale 0 to 4
[6] = 10 µM compound, 48 h, scale 0 to 4
[7] = 10 µM compound, 72 h, scale 0 to 4
[8] = Phe in R1′ changed from S to R configuration

SMILES	schistosomula severity score [1, 2]	schistosomula severity score [1, 3]	schistosomula severity score [1, 4]	schistosomula severity score [1, 5]	schistosomula severity score [1, 6]	schistosomula severity score [1, 7]	decrease in inhibitory potency vs gallinamide A (recombinant SmCB1)	SmCB1 inhibition k2nd (recombinant SmCB1)	schistosomula phenotype descriptors ([1]; 1 µM compound, 72 h)	schistosomula phenotype descriptors ([1]; 10 µM compound, 48 h)	schistosomula phenotype descriptors ([1]; 10 µM compound, 72 h)	schistosomula phenotype descriptors ([1]; 1 µM compound, 48 h)	improvement of inhibition vs 14 (recombinant SmCB1; [8])	schistosomula phenotype descriptors ([1]; 10 µM compound, 24 h)	decrease in inhibition potency vs 8 (recombinant SmCB1)	improvement of inhibition vs 17 (recombinant SmCB1; [8])	decrease in inhibition vs 7 (recombinant SmCB1; Phe in R1 changed from S to R configuration)	improvement of inhibition vs 18 (recombinant SmCB1; [8])	decrease in k2nd (recombinant SmCB1; absence of a double bond in the acrylamide group)
COC1=CC(=O)N(C(=O)/C=C/[C@H](C)NC(=O)[C@H](CC(C)C)NC(=O)[C@H](CC(C)C)OC(=O)[C@H](C(C)C)N(C)C)[C@H]1C [compound 2]	0	1	4	4	4	4	2 fold	3334 ± 559 M^–1·s^–1	–	–	–	–	–	–	–	–	–	–	–
CCC(C)C(NC(C)=O)C(=O)NC(CC(C)C)C(=O)NC(CC(C)C)C(=O)NC(C)C=CC(=O)N1C(=O)C=C(OC)C1C (stereo not drawn) [compound 3]	0	0	2	0	2	2	2.3 fold	2902 ± 172 M^–1·s^–1	Dark, R	Dark, R	Dark, R	–	–	–	–	–	–	–	–
CCC(C)C(C(=O)NC(CC(C)C)C(=O)NC(CC(C)C)C(=O)NC(C)C=CC(=O)N1C(=O)C=C(OC)C1C)N(C)C (stereo not drawn) [compound 4]	0	0	4	1	4	4	2.3 fold	2894 ± 113 M^–1·s^–1	–	–	–	–	–	–	–	–	–	–	–
C#CCCCCOC1=CC(=O)N(C(=O)C=CC(C)NC(=O)C(CC(C)C)NC(=O)C(CC(C)C)OC(=O)C(C(C)CC)N(C)C)C1C (stereo not drawn) [compound 5]	0	4	4	1	4	4	2.4 fold	2792 ± 360 M^–1·s^–1	–	–	–	–	–	–	–	–	–	–	–
CCC(C)C(C(=O)OC(CC(C)C)C(=O)NC(CC(C)C)C(=O)NC(C=CC(=O)N1C(=O)C=C(OC)C1Cc1ccccc1)Cc1ccccc1)N(C)C (stereo not drawn) [compound 7]	0	3	4	1	4	4	–	942 ± 50 M^–1·s^–1	–	–	–	Dark, R, S	17 fold	–	–	–	–	–	–
CCC(C)C(C(=O)OC(CC(C)C)C(=O)NC(CC(C)C)C(=O)NC(C=CC(=O)N1C(=O)C=C(OC)C1C)Cc1ccccc1)N(C)C (stereo not drawn) [compound 8]	1	4	4	3	4	4	7.5 fold	887 ± 46 M^–1·s^–1	–	–	–	–	–	Dark, R, S	–	–	–	–	–
CCC(C)C(C(=O)OC(CC(C)C)C(=O)NC(CC(C)C)C(=O)NC(C=CC(=O)N1C(=O)C=C(OC)C1CC(C)C)Cc1ccccc1)N(C)C (stereo not drawn) [compound 10]	0	2	4	0	4	4	–	537 ± 48 M^–1·s^–1	–	–	–	Dark, R	–	–	–	–	–	–	–
COC1=CC(=O)N(C(=O)/C=C/[C@H](Cc2ccccc2)NC(=O)[C@H](CC(C)C)NC(=O)[C@H](CC(C)C)OC(=O)[C@H](C(C)C)N(C)C)[C@H]1CC(C)C [compound 11]	1	3	4	1	4	4	–	295 ± 17 M^–1·s^–1	–	–	–	Dark, R, S	–	–	–	–	–	–	–
COC1=CC(=O)N(C(=O)/C=C/[C@H](Cc2ccccc2)NC(=O)[C@H](CC(C)C)NC(=O)[C@H](CC(C)C)OC(=O)[C@H](Cc2ccccc2)N(C)C)[C@H]1C [compound 12]	1	2	4	3	4	4	–	212 ± 30 M^–1·s^–1	–	–	–	Dark, R	–	Dark, R, S	4.2–49 fold	–	–	–	–
COC1=CC(=O)N(C(=O)/C=C/[C@H](Cc2ccccc2)NC(=O)[C@H](CC(C)C)NC(=O)[C@H](CC(C)C)OC(=O)[C@H](Cc2ccccc2)N(C)C)[C@@H]1Cc1ccccc1 [compound 13]	0	2	4	2	4	4	–	109 ± 2 M^–1·s^–1	–	–	–	–	–	Dark, R	–	6 fold	–	–	–
CCC(C)C(C(=O)OC(CC(C)C)C(=O)NC(CC(C)C)C(=O)NC(C=CC(=O)N1C(=O)C=C(OC)C1Cc1ccccc1)Cc1ccccc1)N(C)C (stereo not drawn) [compound 14]	0	3	4	1	4	4	–	54.5 ± 1.3 M^–1·s^–1	–	–	–	–	–	–	4.2–49 fold	–	–	–	–
CCC(C)C(C(=O)OC(CC(C)C)C(=O)NC(CC(C)C)C(=O)NC(C=CC(=O)N1C(=O)C=C(OC)C1Cc1ccccc1)Cc1ccccc1)N(C)C (stereo not drawn) [compound 15]	0	3	–	2	4	4	–	41.6 ± 1.6 M^–1·s^–1	–	–	–	–	–	Dark, R	–	–	23 fold	2.6 fold	–
CCC(C)C(C(=O)OC(CC(C)C)C(=O)NC(CC(C)C)C(=O)NC(C)CCC(=O)N1C(=O)C=C(OC)C1C)N(C)C (stereo not drawn) [compound 16]	0	0	0	0	2	2	–	36.9 ± 0.3 M^–1·s^–1	–	Dark, R	Dark, R	–	–	–	–	–	–	–	2 orders of magnitude
COC1=CC(=O)N(C(=O)/C=C/[C@H](Cc2ccccc2)NC(=O)[C@H](CC(C)C)NC(=O)[C@H](CC(C)C)OC(=O)[C@H](Cc2ccccc2)N(C)C)[C@H]1Cc1ccccc1 [compound 17]	0	0	4	1	4	4	–	18.2 ± 0.2 M^–1·s^–1	–	–	–	–	–	–	4.2–49 fold	–	–	–	–
